Measured values from ChEMBL document CHEMBL1201862, “PubChem BioAssay data set” (2004).
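Method: 48-hour compound exposure of cells in 96-well plates, five concentrations, linear interpolation of endpoints. GI50 is the concentration that inhibits growth by half.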 The source made the active and inactive calls. No stated cut-off is given here; in the data, active = GI50 up to about 1.1 µM and inactive = higher.

Legend:
Assay in all cases: NCI anticancer screen, dose series, 48 h
CAKI-1 = tested on: CAKI-1
HCT-15 = tested on: HCT-15
SNB-19 = tested on: SNB-19
HT-29 = tested on: HT-29
NCI-H522 = tested on: NCI-H522
HOP-62 = tested on: HOP-62
UACC-257 = tested on: UACC-257
MOLT-4 = tested on: MOLT-4
HCC 2998 = tested on: HCC 2998
HL-60 = tested on: HL-60
U-251 = tested on: U-251
SK-MEL-5 = tested on: SK-MEL-5
HOP-92 = tested on: HOP-92
SK-OV-3 = tested on: SK-OV-3
T47D = tested on: T47D
A549 = tested on: A549
PC-3 = tested on: PC-3
786-0 = tested on: 786-0
RPMI-8226 = tested on: RPMI-8226
TK-10 = tested on: TK-10
OVCAR-8 = tested on: OVCAR-8
MDA-MB-435 = tested on: MDA-MB-435
OVCAR-3 = tested on: OVCAR-3
SF-539 = tested on: SF-539
RXF 393 = tested on: RXF 393
SR = tested on: SR
SK-MEL-28 = tested on: SK-MEL-28
HCT-116 = tested on: HCT-116
K562 = tested on: K562
NCI/ADR-RES = tested on: NCI/ADR-RES
Hs-578T = tested on: Hs-578T
DU-145 = tested on: DU-145
MDA-N = tested on: MDA-N
LOX IMVI = tested on: LOX IMVI
BT-549 = tested on: BT-549
NCI-H226 = tested on: NCI-H226
NCI-H460 = tested on: NCI-H460
M14 = tested on: M14
KM12 = tested on: KM12
SK-MEL-2 = tested on: SK-MEL-2
MCF7 = tested on: MCF7
CCRF-CEM = tested on: CCRF-CEM
COLO 205 = tested on: COLO 205
Malme-3M = tested on: Malme-3M
IGROV-1 = tested on: IGROV-1
MDA-MB-231 = tested on: MDA-MB-231
NCI-H23 = tested on: NCI-H23
SF-295 = tested on: SF-295
SF-268 = tested on: SF-268
SN12C = tested on: SN12C
SNB-75 = tested on: SNB-75
SW-620 = tested on: SW-620
ACHN = tested on: ACHN
OVCAR-4 = tested on: OVCAR-4
UACC-62 = tested on: UACC-62
UO-31 = tested on: UO-31
OVCAR-5 = tested on: OVCAR-5
EKVX = tested on: EKVX
A498 = tested on: A498

Compound: Cc1cnc2[nH]c(-c3ccccc3)cc(=O)c2c1
- GI50 (CAKI-1): < 0.0186 µM (active)
- GI50 (HCT-15): 0.0212 µM
- GI50 (SNB-19): 0.0904 µM (active)
- GI50 (HT-29): 0.0101 µM (active)
- GI50 (NCI-H522): < 0.0118 µM (active)
- GI50 (HOP-62): 1.21 µM (inactive)
- GI50 (UACC-257): < 0.0218 µM (active)
- GI50 (MOLT-4): 0.0252 µM (active)
- GI50 (HCC 2998): 0.0372 µM (active)
- GI50 (HL-60): < 0.01 µM (active)
- GI50 (U-251): 0.0188 µM (active)
- GI50 (SK-MEL-5): < 0.01 µM (active)
- GI50 (HOP-92): 0.065 µM (active)
- GI50 (SK-OV-3): 0.0284 µM (active)
- GI50 (T47D): > 100 µM (inactive)
- GI50 (A549): 0.0585 µM (active)
- GI50 (PC-3): 0.0161 µM (active)
- GI50 (786-0): 0.043 µM (active)
- GI50 (RPMI-8226): 0.0219 µM (active)
- GI50 (TK-10): 0.151 µM (active)
- GI50 (OVCAR-8): 0.04 µM (active)
- GI50 (MDA-MB-435): < 0.01 µM (active)
- GI50 (OVCAR-3): 0.0123 µM (active)
- GI50 (SF-539): 0.0246 µM (active)
- GI50 (RXF 393): 0.0154 µM (active)
- GI50 (SR): < 0.01 µM (active)
- GI50 (SK-MEL-28): 0.0363 µM (active)
- GI50 (HCT-116): < 0.0155 µM (active)
- GI50 (K562): < 0.01 µM (active)
- GI50 (NCI/ADR-RES): 0.012 µM (active)
- GI50 (Hs-578T): 0.0171 µM (active)
- GI50 (DU-145): 0.0395 µM (active)
- GI50 (MDA-N): < 0.01 µM (active)
- GI50 (LOX IMVI): 0.0351 µM (active)
- GI50 (BT-549): 0.0306 µM (active)
- GI50 (NCI-H226): 0.122 µM (active)
- GI50 (NCI-H460): 0.0259 µM (active)
- GI50 (M14): 0.0213 µM (active)
- GI50 (KM12): 0.0138 µM (active)
- GI50 (SK-MEL-2): 0.0391 µM (active)
- GI50 (MCF7): 0.164 µM (active)
- GI50 (CCRF-CEM): 0.0159 µM (active)
- GI50 (COLO 205): 0.0193 µM (active)
- GI50 (Malme-3M): 0.017 µM (active)
- GI50 (IGROV-1): 0.0817 µM (active)
- GI50 (MDA-MB-231): 0.217 µM (active)
- GI50 (NCI-H23): 0.0741 µM (active)
- GI50 (SF-295): 0.0545 µM (active)
- GI50 (SF-268): 0.0697 µM (active)
- GI50 (SN12C): 0.0527 µM (active)
- GI50 (SNB-75): 0.0122 µM (active)
- GI50 (SW-620): < 0.01 µM (active)
- GI50 (ACHN): 0.0608 µM (active)
- GI50 (OVCAR-4): 1.35 µM (inactive)
- GI50 (UACC-62): < 0.0132 µM (active)
- GI50 (UO-31): 0.0528 µM (active)
- GI50 (OVCAR-5): 3.07 µM (inactive)
- GI50 (EKVX): 0.716 µM (active)

Compound: CSc1ncc2c(C#N)c3ccccn3c(=O)c2n1
- GI50 (CAKI-1): > 100 µM (inactive)
- GI50 (HCT-15): > 100 µM
- GI50 (SNB-19): > 100 µM (inactive)
- GI50 (HT-29): > 100 µM (inactive)
- GI50 (HOP-62): > 100 µM (inactive)
- GI50 (UACC-257): > 100 µM (inactive)
- GI50 (MOLT-4): > 100 µM (inactive)
- GI50 (HCC 2998): > 100 µM (inactive)
- GI50 (HL-60): > 100 µM (inactive)
- GI50 (U-251): > 100 µM (inactive)
- GI50 (SK-MEL-5): > 100 µM (inactive)
- GI50 (HOP-92): > 100 µM (inactive)
- GI50 (SK-OV-3): > 100 µM (inactive)
- GI50 (T47D): > 100 µM (inactive)
- GI50 (A549): > 100 µM (inactive)
- GI50 (PC-3): > 100 µM (inactive)
- GI50 (786-0): > 100 µM (inactive)
- GI50 (RPMI-8226): > 100 µM (inactive)
- GI50 (TK-10): > 100 µM (inactive)
- GI50 (OVCAR-8): > 100 µM (inactive)
- GI50 (MDA-MB-435): > 100 µM (inactive)
- GI50 (OVCAR-3): > 100 µM (inactive)
- GI50 (SF-539): > 100 µM (inactive)
- GI50 (RXF 393): > 100 µM (inactive)
- GI50 (SR): > 100 µM (inactive)
- GI50 (SK-MEL-28): > 100 µM (inactive)
- GI50 (HCT-116): 88.5 µM (inactive)
- GI50 (K562): > 100 µM (inactive)
- GI50 (NCI/ADR-RES): > 100 µM (inactive)
- GI50 (Hs-578T): > 100 µM (inactive)
- GI50 (DU-145): > 100 µM (inactive)
- GI50 (MDA-N): > 100 µM (inactive)
- GI50 (LOX IMVI): > 100 µM (inactive)
- GI50 (BT-549): > 100 µM (inactive)
- GI50 (A498): > 100 µM (inactive)
- GI50 (NCI-H226): > 100 µM (inactive)
- GI50 (NCI-H460): 57.3 µM (inactive)
- GI50 (M14): > 100 µM (inactive)
- GI50 (KM12): > 100 µM (inactive)
- GI50 (SK-MEL-2): > 100 µM (inactive)
- GI50 (MCF7): > 100 µM (inactive)
- GI50 (CCRF-CEM): > 100 µM (inactive)
- GI50 (COLO 205): > 100 µM (inactive)
- GI50 (Malme-3M): > 100 µM (inactive)
- GI50 (IGROV-1): > 100 µM (inactive)
- GI50 (MDA-MB-231): > 100 µM (inactive)
- GI50 (NCI-H23): > 100 µM (inactive)
- GI50 (SF-295): > 100 µM (inactive)
- GI50 (SF-268): > 100 µM (inactive)
- GI50 (SN12C): > 100 µM (inactive)
- GI50 (SNB-75): > 100 µM (inactive)
- GI50 (SW-620): 52.6 µM (inactive)
- GI50 (ACHN): > 100 µM (inactive)
- GI50 (OVCAR-4): > 100 µM (inactive)
- GI50 (UACC-62): > 100 µM (inactive)
- GI50 (UO-31): > 100 µM (inactive)
- GI50 (OVCAR-5): > 100 µM (inactive)
- GI50 (EKVX): > 100 µM (inactive)
